# Experimental data: patent US10618914B2 (UNIVERSITY OF PITTSBURGH—OF THE COMMONWEALTH SYSTEM OF …, priority 2015, dated 2020)
# Where two headings read alike, the source gives them in different places.
# Legend:
# Type in all cases: cell-based
# STAT3 = test: HCS STAT3 assay
# Cal33 cells = test: Cal33 growth inhibition
# STAT1 = STAT1 assay (selectivity counter-screen)
# OSC19 = test: Growth inhibition on HNSCC cell line OSC19; conditions: average of 2 experiments; read-out: 0SC19 GI50
# FADU = test: Growth inhibition on HNSCC cell line FADU; conditions: average of 2 experiments
# 686LN = test: Growth inhibition on HNSCC cell line 686LN; conditions: average of 2 experiments
# [1] = tested on: HNSCC cell lines 686LN, FADU, CAL33, OSC19; test: Growth inhibition on HNSCC cell line panel; conditions: range over cell lines 686LN
# [2] = Table 2, read-out: STAT3 (IC50)
# [3] = Table 2, read-out: Cal33 (IC50)
# [4] = Table 5, * average of 2 experiments
# [5] = Table 1, read-out: STAT3 (mean IC50)
# [6] = Homo sapiens, CAL-33, Table 1, read-out: Growth Inhibition Cal33 (mean IC50)
# [7] = Table 5, * average of 2 experiments, read-out: STAT3 IC50 (converted)
# [8] = Table 4, read-out: STAT3 IC50 (converted)
# [9] = Homo sapiens, CAL-33, Table 2, read-out: Cal33 (IC50)
IC50 (STAT3; [2]) [µM],Compound,IC50 (Cal33 cells; [3]) [µM],further results
18.2,CC1Sc2nnc(-c3[nH]nc4c3CCC4)n2N=C1c1ccccc1 (racemic) [compound 10173],41.8,–
–,COc1ccc(C2=Nn3c(nnc3-c3[nH]nc4c3CCC4)SC2C(C)C)cc1 (stereo not shown) [Cmpd 26],–,GI50 (Cal33 cells; [4]): 0.4 ± 0.1 µM; IC50 (STAT1; [4]): > 50 µM
21.6,COc1ccc(C2=Nn3c(nnc3-c3cc(-c4ccccc4)n[nH]3)SC2C(C)C)cc1 (stereo not shown) [compound 10319],20,–
–,Clc1ccc(C2=Nn3c(nnc3-c3[nH]nc4c3CCCC4)SC2)cc1 [UPCDC10084],–,IC50 (STAT3; [5]): 21.3 µM; IC50 (Cal33 cells; [6]): 0.6 µM
11.1,O=C(CC1Sc2nnc(-c3cc(-c4ccc(Cl)cc4)n[nH]3)n2N=C1c1ccccc1)N1CCCC1 (stereo not shown) [compound 10411],21.6,–
18.6,CC1Sc2nnc(-c3[nH]nc4c3CCC4)n2N=C1c1ccc(Br)cc1 (stereo not shown) [compound 10476],0.79,–
33.2,COCCC1Sc2nnc(-c3cc(-c4ccc(Cl)cc4)n[nH]3)n2N=C1c1ccc(OC)cc1 (stereo not shown) [compound 10373],4.8,–
–,CC(C)C1Sc2nnc(-c3[nH]nc4c3CCC4)n2N=C1c1ccc(Cl)c(Cl)c1 (stereo not shown) [Cmpd 25],–,IC50 (STAT3; [7]): 4.4 µM; GI50 (Cal33 cells; [4]): 8.2 µM; IC50 (STAT1; [4]): > 50 µM
–,c1ccc(C2=Nn3c(nnc3-c3cc(-c4ccccc4)n[nH]3)SC2)cc1 [7b],–,IC50 (STAT3; [8]): 27 µM; IC50 (STAT1; Table 4): > 50 µM
37.3,O=C(CC1Sc2nnc(-c3cc(-c4ccccc4)n[nH]3)n2N=C1c1ccccc1)N1CCCC1 (stereo not shown) [compound 10410],43.5,–
7,COc1cccc(C2=Nn3c(nnc3-c3cc(-c4ccc(Cl)cc4)n[nH]3)SC2C)c1 (stereo not shown) [compound 10535],6.3,–
27.3,CC(C)C1Sc2nnc(-c3cc(-c4ccccc4)n(C)n3)n2N=C1c1ccc(Cl)c(Cl)c1 (stereo not shown) [compound 10556],48.6,–
5.1,COc1ccc(C2=Nn3c(nnc3-c3[nH]nc4c3CCC4)SC2CC(C)C)cc1 (stereo not shown) [UPCDC10305],–,"IC50 (STAT3; FIG. 3, read-out: STAT3 potency (IC50)): < 10 µM; IC50 (STAT3; [5]): 5.14 µM; IC50 (Cal33 cells; [6]): 0.47 µM; IC50 (Cal33 cells; [9]): 0.47 µM"
14.1,Cc1ccc(C2=Nn3c(nnc3-c3cc(-c4ccccc4)n[nH]3)SC2C)cc1 (stereo not shown) [compound 10473],12,–
8.8,COc1ccc(C2=Nn3c(nnc3-c3[nH]nc4c3CCC4)SC2C)cc1 (stereo not shown) [UPCDC10262],–,IC50 (STAT3; [5]): 8.78 µM; IC50 (Cal33 cells; [6]): 0.18 µM; IC50 (Cal33 cells; [9]): 0.18 µM
–,CC1Sc2nnc(-c3cc(-c4ccccc4)n[nH]3)n2N=C1c1ccccc1 (stereo not shown) [Cmpd 21],–,IC50 (STAT3; [7]): 3.4 µM; GI50 (Cal33 cells; [4]): 34.1 ± 8.7 µM; IC50 (STAT1; [4]): 15 µM

IC50 (STAT3; [2]) [µM],Compound,IC50 (Cal33 cells; [3]) [µM],further results
27.7,CC1Sc2nnc(-c3[nH]nc4c3CCC4)n2N=C1c1ccc(F)cc1 (racemic) [compound 10282],31.3,–
–,Clc1ccc(C2=Nn3c(nnc3-c3cc(-c4ccccc4)n[nH]3)SC2)cc1Cl [1b],–,IC50 (STAT1; Table 4): > 50 µM
–,COc1ccc(C2=Nn3c(nnc3-c3[nH]nc4c3CCC4)SC2C)cc1 (stereo not shown) [Cmpd 20],–,IC50 (STAT3; [7]): 9.1 µM; GI50 (Cal33 cells; [4]): 0.2 µM; IC50 (STAT1; [4]): > 50 µM
7.3,COc1ccc(C2=Nn3c(nnc3-c3n[nH]c(-c4ccc(Cl)cc4)c3C)SC2C)cc1 (stereo not shown) [compound 10547],1.3,–
45.6,CC1(C)Sc2nnc(-c3cc(-c4ccccc4)n[nH]3)n2N=C1c1ccccc1 [compound 10264],50,–
–,COc1ccc(C2=Nn3c(nnc3-c3cc(-c4ccc(Cl)cc4)n[nH]3)SC2C)cc1 (stereo not shown) [compound 24],–,"GI50 (OSC19): 14.9 µM; GI50 (Cal33 cells; Table 6, average of 2 experiments): 2.2 µM; GI50 (FADU): 8.4 µM; GI50 (686LN): 17.4 µM"
27.1,CC(C)CC1Sc2nnc(-c3[nH]nc4c3CCC4)n2N=C1c1ccc(Cl)c(Cl)c1 (racemic) [compound 10304],3.5,–
11.6,COC(=O)CC1Sc2nnc(-c3cc(-c4ccccc4)n[nH]3)n2N=C1c1ccc(OC)cc1 (stereo not shown) [compound 10427],34.5,–
–,Clc1ccc(C2=Nn3c(nnc3-c3cc(-c4ccccc4)n[nH]3)SC2)cc1 [2b],–,GI50 [1]: 27 to 44 µM; IC50 (STAT3; [8]): 9.6 µM; IC50 (STAT1; Table 4): > 50 µM
–,COc1ccc(C2=Nn3c(nnc3-c3cc(-c4ccc(F)cc4)n[nH]3)SC2C)cc1 (stereo not shown) [Cmpd 23],–,IC50 (STAT3; [7]): 4.2 µM; GI50 (Cal33 cells; [4]): 29.5 ± 6.5 µM; IC50 (STAT1; [4]): > 30 µM
3.7,CCN(CC)c1ccc(C2=Nn3c(nnc3-c3cc(-c4ccccc4)n(C)n3)SC2C)cc1 (stereo not shown) [compound 10555],10.5,–
24.2,CC1Sc2nnc(-c3cc(-c4ccccc4)n[nH]3)n2N=C1c1ccc(OC(F)(F)F)cc1 (stereo not shown) [compound 10474],50,–
8.6,CC1Sc2nnc(-c3cc(-c4ccccc4)n[nH]3)n2N=C1c1ccc(F)c(F)c1 (stereo not shown) [compound 10532],14.2,–
8.3,COc1ccc(C2=Nn3c(nnc3-c3cc(-c4ccccc4)n(C)n3)SC2C(C)C)cc1 (stereo not shown) [compound 10554],19.1,–
26.5,c1ccc(C2=Nn3c(nnc3-c3[nH]nc4c3CCC4)SC2c2ccccc2)cc1 (racemic) [compound 10298],1.1,–
